The source of these data is patent US20080207708A1, “Oxazole and Thiazole Compounds and Their Use in the Treatment of Pge2 Mediated Disorders” (GLAXO GROUP LIMITED, priority 2005, published 2008).

Structures can show the parent of a compound that is named as a salt. A value given as a limit tells only on which side of the number the result lay.

Test [1] deals with T1, EP1 receptors (Homo sapiens, UniProt P34995).
T1 sequence (P34995 1-402): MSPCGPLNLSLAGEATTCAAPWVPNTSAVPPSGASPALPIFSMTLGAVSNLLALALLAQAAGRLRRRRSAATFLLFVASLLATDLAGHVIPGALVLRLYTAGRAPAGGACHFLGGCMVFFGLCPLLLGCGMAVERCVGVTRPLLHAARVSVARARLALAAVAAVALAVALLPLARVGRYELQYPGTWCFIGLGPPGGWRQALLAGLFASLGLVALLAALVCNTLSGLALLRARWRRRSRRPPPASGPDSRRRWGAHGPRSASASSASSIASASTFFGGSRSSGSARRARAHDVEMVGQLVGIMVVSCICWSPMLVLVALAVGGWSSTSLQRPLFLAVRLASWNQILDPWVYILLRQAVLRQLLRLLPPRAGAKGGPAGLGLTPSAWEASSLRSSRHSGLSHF
As to the kind of experiment: human EP1 calcium mobilisation assay (CHO-K1 cells, FLIPR, PGE2). As to conditions: free bases or sodium salts; averages of a number of experiments; read-out: functional pKi value, human EP1 calcium mobilisation assay (converted). Set-up: expressed in transfected cells; host or cells: CHO-K1 cells, pCIN vector. The test is classed as cell-based. As to the method:
Briefly, the antagonist properties of compounds are assessed by their ability to inhibit the mobilisation of intracellular calcium ([Ca^2+]i) in response to activation of EP1 or EP3 receptors by the natural agonist hormone prostaglandin E2 (PGE2). Increasing concentrations of antagonist reduce the amount of calcium that a given concentration of PGE2 can mobilise. The net effect is to displace the PGE2 concentration-effect curve to higher concentrations of PGE2. The amount of calcium produced is assessed using a calcium-sensitive fluorescent dye such as Fluo-4, AM and a suitable instrument such as a Fluorimetric Imaging Plate Reader (FLIPR). Increasing amounts of [Ca^2+]i produced by receptor activation increase the amount of fluorescence produced by the dye and give rise to an increasing signal. The signal may be detected using the FLIPR instrument and the data generated may be analysed with suitable curve-fitting software.
The human EP1 or EP3 calcium mobilisation assay (hereafter referred to as ‘the calcium assay’) utilises Chinese hamster ovary-K1 (CHO-K1) cells into which a stable (pCIN; BioTechniques 20 (1996): 102-110) vector containing either EP1 or EP3 cDNA has previously been transfected. Cells are cultured in suitable flasks containing culture medium such as DMEM:F-12 supplemented with 10% v/v foetal calf serum, 2 mM L-glutamine, 0.25 mg/ml geneticin, 100 μM flurbiprofen and 10 µg/ml puromycin. For assay, cells are harvested using a proprietary reagent that dislodges cells such as Versene. Cells are re-suspended in a suitable quantity of fresh culture media for introduction into a 384-well plate. Following incubation for 24 hours at 37° C. the culture media is replaced with a medium containing Fluo-4 and the detergent pluronic acid, and a further incubation takes place. Concentrations of compounds are then added to the plate in order to construct concentration-effect curves. This may be performed on the FLIPR in order to assess the agonist properties of the compounds. Concentrations of PGE2 are then added to the plate in order to assess the antagonist properties of the compounds. The data so generated may be analysed by means of a computerised curve-fitting routine. The concentration of compound that elicits a half-maximal inhibition of the calcium mobilisation induced by PGE2 (pIC50) may then be estimated.
(Calcium flux is commonly read through the fluorescence of an indicator in the cells.)

Test [2] addresses T1, EP1 receptors. In words: Binding assay for the human prostanoid EP1 receptor (competition with [3H]-PGE2). Set-up: expressed in transfected cells; host or cells: CHO-K1 cells, membrane fraction. The settings on record: [3H]-PGE2 competition; averages of a number of experiments; read-out: pIC50 value, binding assay for the human prostanoid EP1 receptor (converted). In short, it runs like this: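 Competition against 3 nM (final) tritiated PGE2 at 30° C for 30 min, pH 6 MES assay buffer, using membranes of stably transfected CHO-K1 cells. Filter-retained counts by scintillation; nonlinear curve fitting gives concentration inhibiting 50% of specific binding.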

Consider `O=C(NS(=O)(=O)c1ccccc1)c1csc(Cc2cc(Cl)ccc2OCc2ccc(Cl)cc2F)n1` [Example 105, 2-[(5-Chloro-2-{[(4-chloro-2-fluorophenyl)methyl]-oxy}phenyl)methyl]-N-(phenylsulfonyl)-1,3-thiazole-4-carboxamide], for which the Ki in test [1] is under 1000 nM. For the same molecule, in test [2], the IC50 was at most 31.6 nM.

As to `O=C(NS(=O)(=O)c1ccccc1)c1csc(Cc2cc(Cl)ccc2OCc2cc(F)c(F)cc2F)n1` [Example 106, 2-[(5-Chloro-2-{[(2,4,5-trifluorophenyl)methyl]oxy}phenyl)methyl]-N-(phenylsulfonyl)-1,3-thiazole-4-carboxamide], the Ki in test [1] is at most 31.6 nM. Also, the IC50 in test [2] was at most 31.6 nM.

On to `CS(=O)(=O)NC(=O)c1csc(Cc2cc(Cl)ccc2OCc2ccc(F)cc2)n1` [Example 107, 2-[(5-Chloro-2-{[(4-fluorophenyl)methyl]-oxy)phenyl)methyl]-N-(methylsulfonyl)-1,3-thiazole-4-carboxamide], for which, in test [1], the Ki was under 1000 nM. Further, in test [2], the IC50 is at most 31.6 nM.

As to `Cc1noc(C)c1S(=O)(=O)NC(=O)c1csc(Cc2cc(Cl)ccc2OCc2ccccc2)n1` [Example 108, 2-({5-Chloro-2-[(phenylmethyl)oxy]-phenyl}methyl)-N-[(3,5-dimethyl-4-isoxazolyl)sulfonyl]-1,3-thiazole-4-carboxamide], in test [1], the Ki is at most 31.6 nM. The IC50 in test [2] is at most 31.6 nM.

Consider `CC(C)(C)OC(=O)Nc1csc(Cc2cc(Cl)ccc2OCc2ccccc2)n1` [Example 110, 1,1-Dimethylethyl [2-({5-chloro-2-[(phenylmethyl)oxy]phenyl}methyl)-1,3-thiazol-4-yl]carbamate], for which the Ki in test [1] is over 1000 nM. The IC50 in test [2] was at most 1000 nM.

For the molecule `CC(C)COc1ccc(Cl)cc1Cc1nc(NC(=O)OC(C)(C)C)cs1` [Example 111, 1,1-Dimethylethyl [2-({5-chloro-2-[(2-methylpropyl)oxy]phenyl}methyl)-1,3-thiazol-4-yl]carbamate], in test [1], the Ki was under 1000 nM. In addition, the IC50 in test [2] is at most 1000 nM.

Regarding `O=C(Nc1csc(Cc2cc(Cl)ccc2OCc2ccccc2)n1)c1ccc(CO)cc1` [Example 112, N-[2-({5-chloro-2-[(phenylmethyl)oxy]phenyl}methyl)-1,3-thiazol-4-yl]-4-(hydroxymethyl)benzamide], the Ki in test [1] is over 1000 nM. For the same molecule, the IC50 in test [2] is at most 1000 nM.

For `O=C(Nc1csc(Cc2cc(Cl)ccc2OCc2ccccc2)n1)c1ccc(CN2CCCCC2)cc1` [Example 113, N-[2-({5-Chloro-2-[(phenylmethyl)oxy]phenyl}methyl)-1,3-thiazol-4-yl]-4-(1-piperidinylmethyl)benzamide], the Ki in test [1] was under 1000 nM. The IC50 in test [2] is at most 1000 nM.

Consider `CN1CCN(Cc2ccc(C(=O)Nc3csc(Cc4cc(Cl)ccc4OCc4ccccc4)n3)cc2)CC1` [Example 114, N-[2-({5-chloro-2-[(phenylmethyl)oxy]-phenyl}methyl)-1,3-thiazol-4-yl]-4-[(4-methyl-1-piperazinyl)methyl]-benzamide], for which the Ki in test [1] is under 1000 nM. Besides, in test [2], the IC50 was at most 1000 nM.

As to `CN1CCN(CCc2ccc3nc(-c4csc(Cc5cc(Cl)ccc5OCc5ccccc5)n4)[nH]c3c2)CC1` [Example 115, 2-[2-({5-chloro-2-[(phenylmethyl)oxy]-phenyl}methyl)-1,3-thiazol-4-yl]-5-[2-(4-methyl-1-piperazinyl)ethyl]-1H-benzimidazole], in test [1], the Ki is under 1000 nM. In addition, the IC50 in test [2] was at most 31.6 nM.

In the case of `CC(C)COc1ccc(Cl)cc1Cc1nc(-c2nc3ccc(CCN(C)C)cc3[nH]2)cs1` [Example 116, (2-{2-[2-({5-Chloro-2-[(2-methylpropyl)oxy]-phenyl}methyl)-1,3-thiazol-4-yl]-1H-benzimidazol-5-yl}ethyl)dimethylamine], in test [1], the Ki was under 1000 nM. Also, the IC50 in test [2] is at most 31.6 nM.

For the molecule `CC(C)COc1ccc(Cl)cc1Cc1nc(-c2nc3ccc(CCN4CCN(C)CC4)cc3[nH]2)cs1` [Example 117, 2-[2-({5-Chloro-2-[(2-methylpropyl)oxy]phenyl}-methyl)-1,3-thiazol-4-yl]-5-(2-(4-methyl-1-piperazinyl)ethyl]-1H-benzimidazole], the Ki in test [1] is under 1000 nM. Besides, the IC50 in test [2] is at most 31.6 nM.

For the molecule `CN(C)Cc1ccc(NC(=O)c2csc(Cc3cc(Cl)ccc3OCc3ccccc3)n2)cc1` [Example 118, 2-({5-Chloro-2-[(phenylmethyl)oxy]phenyl}methyl)-N-{4-[(dimethylamino)methyl]phenyl}-1,3-thiazole-4-carboxamide hydrochloride], the Ki in test [1] is over 1000 nM. Further, the IC50 in test [2] was at most 1000 nM.

In the case of `O=C(Nc1ccc(CN2CCCC2)cc1)c1csc(Cc2cc(Cl)ccc2OCc2ccccc2)n1` [Example 119, 2-({5-Chloro-2-[(phenylmethyl)oxy]phenyl}-methyl)-N-[4-(1-pyrrolidinylmethyl)phenyl]-1,3-thiazole-4-carboxamidehydrochloride], in test [1], the Ki is over 1000 nM. For the same molecule, the IC50 in test [2] is at most 1000 nM.

As for `O=C(Nc1ccc(CN2CCOCC2)cc1)c1csc(Cc2cc(Cl)ccc2OCc2ccccc2)n1` [Example 120, 2-({5-Chloro-2-[(phenylmethyl)oxy]phenyl}-methyl)-N-[4-(4-morpholinylmethyl)phenyl]-1,3-thiazole-4-carboxamidehydrochloride], in test [1], the Ki is over 1000 nM. Moreover, the IC50 in test [2] was at most 1000 nM.

For `O=C(Nc1ccc(CN2CCCCC2)cc1)c1csc(Cc2cc(Cl)ccc2OCc2ccccc2)n1` [Example 121, 2-({5-Chloro-2-[(phenylmethyl)oxy]phenyl}-methyl)-N-[4-(1-piperidinylmethyl)phenyl]-1,3-thiazole-4-carboxamidehydrochloride], the Ki in test [1] was over 1000 nM. Moreover, in test [2], the IC50 was at most 1000 nM.

Turning to `CC(C)COc1ccc(Cl)cc1Cc1nc(-c2nc3ccc(CN(C)C)cc3[nH]2)cs1` [Example 124, ({2-[2-({5-Chloro-2-[(2-methylpropyl)oxy]phenyl}-methyl)-1,3-thiazol-4-yl]-1H-benzimidazol-5-yl}methyl)dimethylaminehydrochloride], the Ki in test [1] is under 1000 nM. Besides, in test [2], the IC50 is at most 31.6 nM.

On to `CC(C)COc1ccc(Cl)cc1Cc1nc(-c2nc3ccc(CN4CCOCC4)cc3[nH]2)cs1` [Example 125, 2-[2-({5-Chloro-2-[(2-methylpropyl)oxy]phenyl}-methyl)-1,3-thiazol-4-yl]-5-(4-morpholinylmethyl)-1H-benzimidazolehydrochloride], for which the Ki in test [1] is under 1000 nM. Moreover, the IC50 in test [2] is at most 31.6 nM.

Consider `CNCc1ccc2nc(-c3csc(Cc4cc(Cl)ccc4OCC(C)C)n3)[nH]c2c1` [Example 126, ({2-[2-({5-Chloro-2-[(2-methylpropyl)oxy]phenyl}-methyl)-1,3-thiazol-4-yl]-1H-benzimidazol-5-yl}methyl)methylaminehydrochloride], for which the Ki in test [1] was under 1000 nM. Besides, the IC50 in test [2] is at most 31.6 nM.

With `CC(=O)Nc1csc(Cc2cc(Cl)ccc2OCc2ccccc2)n1` [Example 127, N-[2-({5-Chloro-2-[(phenylmethyl)oxy]phenyl}methyl)-1,3-thiazol-4-yl]acetamide], the Ki in test [1] was over 1000 nM. Further, the IC50 in test [2] was at most 1000 nM.

For `CCC(=O)Nc1csc(Cc2cc(Cl)ccc2OCc2ccccc2)n1` [Example 128], the Ki in test [1] is over 1000 nM. For the same molecule, the IC50 in test [2] was at most 1000 nM.

With `CC(C)C(=O)Nc1csc(Cc2cc(Cl)ccc2OCc2ccccc2)n1` [Example 129, N-[2-({5-Chloro-2-[(phenylmethyl)oxy]phenyl}methyl)-1,3-thiazol-4-yl]-2-methylpropanamide], the Ki in test [1] was under 1000 nM. For the same molecule, the IC50 in test [2] was at most 1000 nM.
